Measured values published in patent US4758577A, “4-(5H-dibenzo[a,d]cyclohepten-5-yl)piperidine compounds for treating cardiovascular disorders” (Merck & Co., Inc., priority 1984, dated 1988).

Tested on: vascular smooth muscle
Test: inhibition of calcium induced contraction of tracheal smooth muscle or vascular tissue (segments of vascular smooth muscle in a tissue bath, depolarized, 0.1 mM calcium chloride re-added)
Type: cell-based, male Sprague-Dawley rats
Conditions: Rattus norvegicus; 10^-7 M; second contraction vs initial contraction
Description: The property may be observed in a test in which segments of vascular smooth muscle obtained from male Sprague-Dawley rats are suspended in physiological salt solution in a tissue bath instrumented for recording contractions. After the tissue has been equilibrated, washed in calcium-free physiological salt solution and depolarized, 0.1 mM calcium chloride is re-added to induce contraction. After the contraction has reached a plateau, tissues are washed and a test compound or vehicle is added to determine the effect on a second contraction achieved by the above cyclic protocol. From measuring the initial contraction as well as the second contraction in the presence of the first compound, the extent of inhibition may be calculated.

Structure (SMILES)	inhibition at 0.1 µM [%]
C(=Cc1ccccc1)CN1CCC(C2c3ccccc3C=Cc3ccccc32)CC1 [4-(5H-Dibenzo[a,d]cyclohepten-5-yl)-1-cinnamylpiperidine]	70
CN(C)c1ccc(CN2CCC(C3c4ccccc4C=Cc4ccccc43)CC2)cc1 [4-(5H-Dibenzo[a,d]cyclohepten-5-yl)-1-(4-dimethylaminobenzyl)piperidine]	69
COc1cc(C=CCN2CCC(C3c4ccccc4C=Cc4ccccc43)CC2)cc(OC)c1OC [4-(5H-Dibenzo[a,d]cyclohepten-5-yl)-1-(3-(3,4,5-trimethoxyphenyl)prop-2-en-1-yl)piperidine]	68
